In article PMC8708872, “Discovery of a Novel Template, 7-Substituted 7-Deaza-4′-Thioadenosine Derivatives as Multi-Kinase Inhibitors” (Pharmaceuticals, 2021):

Assays:
DYRK1B = molecular target: T1, DYRK1B (Homo sapiens, UniProt Q9Y463); assay: Kinase inhibition profile, KINOMEscan 11-point dose response; format: binding
T1 construct: purchased Eurofins DiscoverX Corporation

CYP2D6 = molecular target: T2, CYP2D6 (Homo sapiens, UniProt P10635); assay: CYP inhibition assay; format: in vitro ADME; settings: human liver microsomes
T2 construct: Human liver microsomes (0.25 mg/mL); from tissue; host or cells: human liver microsomes
T2 sequence (P10635 whole entry): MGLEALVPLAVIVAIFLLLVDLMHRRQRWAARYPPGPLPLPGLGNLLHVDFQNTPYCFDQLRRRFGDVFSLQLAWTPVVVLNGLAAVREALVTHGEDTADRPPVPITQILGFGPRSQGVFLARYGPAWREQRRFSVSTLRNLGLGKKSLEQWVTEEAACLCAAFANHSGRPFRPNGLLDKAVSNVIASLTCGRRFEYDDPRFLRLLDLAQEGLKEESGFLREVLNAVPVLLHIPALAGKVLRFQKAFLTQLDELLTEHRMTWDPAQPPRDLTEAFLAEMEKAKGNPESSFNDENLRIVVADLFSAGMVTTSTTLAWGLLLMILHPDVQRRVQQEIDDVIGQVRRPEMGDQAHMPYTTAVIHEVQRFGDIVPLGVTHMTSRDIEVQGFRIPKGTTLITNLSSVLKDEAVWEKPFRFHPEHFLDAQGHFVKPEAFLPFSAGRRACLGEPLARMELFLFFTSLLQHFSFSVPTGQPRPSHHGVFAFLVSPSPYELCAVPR

KM12 = assay: Antiproliferative activity against KM12; format: cell-based; settings: Homo sapiens, colon cancer cell line highly expressing NTRK1/2/3 and DYRK3, read-out: IC50 cell growth of KM12
A549 = assay: SRB cell proliferation inhibition assay; format: cell-based; settings: human lung cancer cells, 72 h
Method: (§1) Human lung cancer cells (A549), colorectal cancer (HCT116) cells, breast cancer cells (MDA-MB-231), liver cancer cells (SK-HEP-1), and prostate cancer cells (PC-3) were purchased from the American Type Culture Collection (Manassas, VA, USA). Human gastric cancer cells (SNU-638) were purchased from the Korean Cell Line Bank (Seoul, Korea). Cells were cultured in medium (Dulbecco’s modified Eagle’s medium for MDA-MB-231 and SK-HEP-1 cells; Roswell Park Memorial Institute 1640 for A549, HCT116, SNU-638, PC-3 cells) supplemented with penicillin-streptomycin and 10% fetal bovine serum at 37 °C in a humidified incubator with 5% carbon dioxide. Cells were seeded at a density of 4–7 × 10^4 cells/mL in 96-well culture plates, and then treated with indicated compounds for 72 h. At the end of the experiment, cells were fixed with 10% trichloroacetic acid (TCA) solution and subjected to sulforhodamine B (SRB) assay to determine cell proliferation. The percentage of cell proliferation was calculated with the following formula:Cell proliferation (%) = 100 × [(A treated − A zero day)/(A control − A zero day)], where A is the average absorbance. The IC50 values were calculated through non-linear regression analysis using TableCurve 2D v5.01 (Systat Software Inc., San Jose, CA, USA). All experiments were performed in triplicate and data shown are representative of two or three independent experiments.

PC-3 = assay: SRB cell proliferation inhibition assay; format: cell-based; settings: human prostate cancer cells, 72 h
Method: as §1

MDA-MB-231 = assay: SRB cell proliferation inhibition assay; format: cell-based; settings: human breast cancer cells, 72 h
Method: as §1

HCT116 = assay: SRB cell proliferation inhibition assay; format: cell-based; settings: HCT-116, human colon cancer cells, 72 h
Method: as §1

SNU638 = assay: SRB cell proliferation inhibition assay; format: cell-based; settings: SNU-638, human stomach cancer cells, 72 h
Method: as §1

SK-HEP-1 = assay: SRB cell proliferation inhibition assay; format: cell-based; settings: SK-HEP1, human liver cancer cells, 72 h
Method: as §1

T1 sequence (Q9Y463 whole entry): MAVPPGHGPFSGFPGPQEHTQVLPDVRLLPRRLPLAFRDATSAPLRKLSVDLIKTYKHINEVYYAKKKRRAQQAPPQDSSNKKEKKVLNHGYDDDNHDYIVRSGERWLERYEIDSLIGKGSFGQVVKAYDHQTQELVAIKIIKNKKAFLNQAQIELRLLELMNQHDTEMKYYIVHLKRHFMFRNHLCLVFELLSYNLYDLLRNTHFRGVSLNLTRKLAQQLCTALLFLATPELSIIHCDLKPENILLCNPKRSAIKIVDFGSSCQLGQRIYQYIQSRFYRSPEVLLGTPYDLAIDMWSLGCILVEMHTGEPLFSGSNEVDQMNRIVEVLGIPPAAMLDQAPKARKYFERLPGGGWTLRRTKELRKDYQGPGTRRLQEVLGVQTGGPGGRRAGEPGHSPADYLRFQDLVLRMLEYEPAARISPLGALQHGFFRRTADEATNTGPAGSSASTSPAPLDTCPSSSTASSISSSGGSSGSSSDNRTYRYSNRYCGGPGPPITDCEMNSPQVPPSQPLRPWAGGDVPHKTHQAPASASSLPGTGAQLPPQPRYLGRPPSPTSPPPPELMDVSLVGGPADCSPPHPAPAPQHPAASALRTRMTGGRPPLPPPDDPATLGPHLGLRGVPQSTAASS

Question: For `C#Cc1cn([C@@H]2S[C@H](CO)[C@@H](O)[C@H]2O)c2ncnc(N)c12` [Compound 1g, (2R,3R,4S,5R)-2-(4-Amino-5-ethynyl-7H-pyrrolo[2,3-d]pyrimidin-7-yl)-5-(hydroxymethyl)tetrahydrothiophene-3,4-diol], which IC50 (DYRK1B; 11-point 3-fold serial dilution) is on record?
Answer: 0.033 µM

Question: What about the Ki (DYRK1B; by Cheng-Prusoff equation) of the same compound?
Answer: 0.033 µM

Question: What about the IC50 (CYP2D6) of the same compound?
Answer: > 20 µM

Question: And the IC50 (KM12)?
Answer: 0.07 µM

Question: And the IC50 (A549)?
Answer: 0.06 µM

Question: What about the IC50 (PC-3) of the same compound?
Answer: 0.004 µM

Question: And the IC50 (MDA-MB-231)?
Answer: 0.05 µM

Question: And the IC50 (HCT116)?
Answer: 0.03 µM

Question: What about the IC50 (SNU638) of the same compound?
Answer: 0.03 µM

Question: What about the IC50 (SK-HEP-1) of the same compound?
Answer: 0.05 µM
